Patent publication US20040091947A1, “Screening strategy for anticancer drugs” (priority 2002, published 2004)

How the values were obtained:
[1] = test system: HT1080 cells transduced with GSE56; assay: FACS analysis of GF7/PI stained cells, radiation-induced changes in MI; assay type: cell-based, human; settings: 4 mM caffeine, 9 Gy irradiation
Protocol: (§1) Mitotic index and the incidence of mitotic catastrophe were determined using mitotic cell specific antibodies (MCSA) as follows. Three different MCSA were compared using fluorescence activated cell sorting (FACS) based on immunofluorescence labeling with MCSA coupled with propidium iodide (PI) staining for DNA content. In this procedure, cells were washed, trypsinized, fixed with an equal volume of 70% ethanol (on ice), resuspended in a small volume of 1% BSA-PBS containing an MCSA, incubated for 1 hour at room temperature, and then washed and bound with secondary (fluorescently-labeled) antibody. The tested MCSA included MPM2 (available from Upstate Biotechnology, Cat. #05-368) and two antibodies provided by Dr. P. Davies (Albert Einstein College of Medicine), including the previously characterized TG3 (Anderson et al., 1998, Exp. Cell Res. 238: 498-502) and unpublished GF7 antibody.
(§2) FACS analysis of GF7/PI stained cells was used to analyze radiation-induced changes in the MI of HT1080 fibrosarcoma cells with different cell cycle checkpoint integrity status.

wild-type HT1080 cells = assay: as above; assay type: cell-based, human; settings: 4 mM caffeine, 9 Gy irradiation
Protocol: as §1, §2

BJ-ELB cells [2] = assay: Cell growth / cell number by Coulter counter, doxorubicin-treated cells; assay type: cell-based, human
Protocol: These cell lines were cultured in a 4:1 mixture of DMEM and Medium 199, with 10% fetal calf serum, supplemented with glutamine, pyruvate, penicillin and streptomycin.
For comparative analysis of specific cellular responses, a concentration of 30 nM doxorubicin was chosen, which had approximately equal growth-inhibitory effect in both cell lines (FIG. 3B).

[3] = test system: panel of 14 solid tumor-derived cell lines; settings: moderate equitoxic doses of doxorubicin, 14 lines, cited from earlier work
BJ-EN cells [4] = assay: Cell growth / cell number by Coulter counter, doxorubicin-treated cells
BJ-EN cells [5] = assay: Fluorescence microscopy of DAPI-stained cells (micronuclei, apoptotic morphology, mitotic index, mitotic figures)
BJ-ELB cells [6] = assay: as above
[7] = after release from 30 nM doxorubicin (3 days)
[8] = day 2 after release from 30 nM doxorubicin
[9] = two days after release from 30 nM doxorubicin (3 days)
[10] = two days after release from doxorubicin

## Cn1c(=O)c2c(ncn2C)n(C)c1=O [caffeine]
[1]
  increase in MI after irradiation in the presence of caffeine: up to 3 fold
wild-type HT1080 cells
  increase in MI after irradiation in the presence of caffeine: ~2 fold

## COc1cccc2c1C(=O)c1c(O)c3c(c(O)c1C2=O)C[C@@](O)(C(=O)CO)C[C@@H]3O[C@H]1C[C@H](N)[C@H](O)[C@H](C)O1 [doxorubicin]
BJ-ELB cells [2]; 30 nM doxorubicin, first day
  change in cell number during doxorubicin treatment: increased their number on the first day
BJ-ELB cells [2]; day 3 after release (3 dR) from 30 nM doxorubicin
  change in cell number after release from the drug: decreased to the same value as at the time of doxorubicin addition
[3]; all other lines developed mitotic catastrophe
  lines that showed predominantly apoptotic response: two
[3]
  lines that exhibited the senescent phenotype after doxorubicin treatment: Eleven of 14
BJ-EN cells [4]; 30 nM doxorubicin, 3 days, BJ-EN
  change in cell number during doxorubicin treatment: essentially no change in cell number
BJ-EN cells [4]; 3-day exposure to different concentrations, BJ-EN compared with BJ-ELB, except for the lowest drug doses
  resistance to doxorubicin (effect on cell growth): more resistant to doxorubicin than BJ-ELB cells
BJ-EN cells [4]; three days in drug-free media after 30 nM doxorubicin for 3 days, BJ-EN
  change in cell number after release from the drug: did not change significantly
BJ-EN cells [5]; 30 nM doxorubicin present
  effect of addition of doxorubicin on mitosis: immediate and complete cessation of mitosis
BJ-EN cells [5]; [7]
  fraction of cells with apoptotic morphology: 0.9%
BJ-EN cells [5]; [8]
  mitotic index (MI): 0.4%
BJ-EN cells [5]; [9]
  micronucleated cell fraction: 1.7%
BJ-EN cells [5]; [10]
  abnormal mitotic figures: 40%
  mitotic figures that were metaphases and telophases: 29%
  normal mitotic figures: 60%
BJ-ELB cells [6]; 30 nM doxorubicin present
  effect of addition of doxorubicin on mitosis: only partially inhibited
BJ-ELB cells [6]; [7]
  fraction of cells with apoptotic morphology: 6.6%
BJ-ELB cells [6]; [8]
  mitotic index (MI): 8.0%
BJ-ELB cells [6]; [9]
  micronucleated cell fraction: 26.4%
BJ-ELB cells [6]; [10]
  mitotic figures that represented anaphase or telophase: 1%
  normal mitotic figures: 8%
